Values of other authors in patent US20020013261A1, “Methods and compositions for promoting angiogenesis using polyethylene glycol (PEG) polymers” (priority 2000, published 2002).

System: vascularization
Conditions: purified recombinant protein injected into ischemic skeletal muscle tissue, rabbit chronic limb ischemia

Substance: basic fibroblast growth factor (bFGF): purified recombinant angiogenic protein
- vascularization: modest but significant vascularization
